Here are results for one sequence from patent US20040132188A1, “Use of non-complexing peptides for the preparation of a composition for transfection of a polynucleotide into a cell and compositions useful in gene therapy” (priority 2001, published 2004).

“Also recorded” adds a separate entry of the source. Ends that are not written are not given here.

The nature of assay [1]: Liposome leakage assay, POPC/cholesterol 3:2 liposomes. The note with it: POPC/chol liposomes, pH 5. The format is biochemical.
Assay [2] deals with WiDr, MDA-MB-435S, SW480 and LoVo. Put plainly: Transfection of human tumor cell lines. The format is cell-based. The note with it: peptide/plasmid pTG11236 complexes, luciferase day 1. The procedure: WiDr (ATCC CCL-218), MDA-MB-435S (ATCC HTB-129), SW480 (ATCC CCL-228) and LoVo cell (CCL-229) were cultivated in the appropriate medium with 10% fetal calf serum, 1% gentamycine, 1% glutamine and 3 g/l glucose, in an incubator at 37° C. and 5% CO2.
The transfection efficiencies with plasmid/ppTG1 complexes were tested in the human tumor cells WiDr, MDA-MB-435S, SW480 and LoVo (ATCC) in comparison to lipofectin, PEI and pcTG90/DOPE (1:1) [±] 5.

For another assay, the system named is 293-EBNA cells. The assay is described as follows: Transfection in vitro, luciferase plasmid pTG11056. The note with it: charge ratio around 1. The format is cell-based. The procedure:
Cells were plated on 24 well plates at a density of 4×10^4 (293-EBNA ) or 7×10^4 (HeLa, Renca) cells/well in DMEM supplemented with 10% FCS. The next day, the medium was replaced by 200 μl serum-free DMEM and plasmid (PTG11056 or pTG11236)/peptide complexes or plasmid/peptide/lipid complexes were prepared in 30 μl 0.9% NaCl or 5% glucose. After 20 min at room temperature these complexes were added to the cells which were then incubated for 2-3 h at 37° C. and 5% CO2 before 1 ml serum-containing DMEM was added. Approximately 20 hours later, cells were lysed by addition of 100 μl 1× Promega lysis buffer, 20 μl of the lysates were analysed for luciferase activity. Proteins were quantified with the bicinchonic acid (BCA) colorimetric method (Smith, Anal. Biochem. 150 (1985), 76-85).
4×10^4 293-EBNA cells, plated on 24 well plates the day before, were transfected with 0.5 μg, 0.1 μg, 0.05 μg arid 0.01 μg of the plasmid pTG11056. The plasmid was either mixed with completely or uncompletely DNA-complexing amounts of ppTG1 in 30 μl 5% glucose and after 20 min at room temperature the mixture was added to the cells which were incubated in 200 μl serum-free medium. Further, pTG11056 was formulated with the established transfection reagents Lipofectin and PEI. […] After twenty hours, cells were washed and luciferase activity was determined in ⅕of the lysed cells.

For the next assay, the system named is plasmid pTG11236. The assay is described as follows: Gel retardation assay (DNA binding activity). The procedure:
3 μg of the plasmid pTG11236 were incubated with increasing amounts of the respective peptide in a final volume of 30 μl with 0.9% NaCl. After 20 min of incubation at room temperature, 6 μl 5× loading buffer (glycerol and bromphenol blue in TAE buffer) were added and 10 μl of these solutions were analyzed on a 1% agarose gel in the presence of ethidium bromide.
The ability of ppTG1 peptide to complex DNA was analyzed by gel retardation assays. […] After 20 minutes incubation at room temperature, loading buffer was added and 10 μl of the resulting solution were analyzed on a 1% agarose gel.
ppTG1 derivatives as they are indicated in Materials and Methods, were tested for their capacity to bind plasmid DNA by gel retardation assays.

Assay [3] is described as follows: Liposome leakage assay, calcein-containing POPC liposomes. The format is biochemical. The procedure: Leakage activity was plotted against peptide concentration.
The peptide ppTG1 was tested for its capacity to cause membrane disruption in a liposome leakage assay with POPC liposomes containing the fluorescent product calcein. […] Release of calcein by Triton X-100 treatment was taken as positive control reaction, incubation with water served as negative control. The membranolytic activity of peptide ppTG1 (20 μg as starting point) was compared with those of equal quantities (20 μg) of JTS-1, JTS-1-K13 and KALA.

Consider GLFKALLKLLKSLWKLLLKA, for which the “liposome leakage activity / calcein release” value in assay [1] was “efficiently liberate calcein”. Also, the “transfection of human tumor cell lines” value in assay [2] is “successfully transfected; also recorded: can efficiently transfect”. Also, the transfection efficiency entry in the assay on 293-EBNA cells (0.05 μg pTG11056 with 0.065 μg peptide) is recorded as “high transfection efficiency”. Also, in the assay with 293-EBNA cells (0.5 μg pTG11056 with 0.65 μg peptide), the luciferase activities entry is “higher than those observed with complexes formed with Lipofectin or PEI”. Besides, the DNA complexed in the assay with plasmid pTG11236 (1 μg peptide (0.35 nmol), 3 μg pTG11236) is on record as 50%. Further, the “amount of peptide giving retardation of plasmid” value in the assay on plasmid pTG11236 (3 μg plasmid DNA pTG11236 (0,8 pmol)) was 4 µg. Also, the membrane disruption result in assay [3] (pH 5) and in assay [3] (pH 7) was “capable of causing membrane disruption” in each case.
